# Measurements taken from patent US12636285B2 (ViiV Healthcare Company, priority 2019, dated 2026).
# Where “and” joins values, the source holds several entries; their conditions need not be identical. Equal entries are not always repeated. Where two headings read alike, the source gives them in different places.
# How the values were obtained:
# [1] = Binding to human plasma proteins; type: in vitro ADME; conditions: read-out: % Bound to human plasma proteins (converted)
# HIV-1111B = assay: Antiviral activity in an acutely infected T-cell line; type: cell-based, HIV-1; conditions: Human immunodeficiency virus 1, read-out: median EC50
# [2] = in vivo
# From the text: The observed hepatocellular findings in mice may be rodent specific.
# [3] = system: HIV-1 group M (subtypes A, B, C, D, F, G, and H) primary isolates; assay: Antiviral activity against group M primary isolates; type: cell-based; conditions: Human immunodeficiency virus 1, read-out: EC50 values
# [4] = Pharmacokinetics in specific populations (renal, hepatic impairment, UGT1A1 genotype); type: in vivo, human; conditions: for exposure higher than matched controls: n=8
# From the text: No dosage adjustment is necessary for patients with mild to severe renal impairment (not on dialysis).
# No dosage adjustment is necessary for patients with mild to moderate hepatic impairment (Child-Pugh Score A or B).
# No dose adjustment is required in subjects with UGT1A1 polymorphisms.
# [5] = Phase 3 clinical trials of oral rilpivirine (rash); type: in vivo, human
# From the text: According to another aspect of the main embodiment, precautions are taken prior to and during treatment with the Combination. Severe skin and hypersensitivity reactions have been reported during postmarketing experience with oral rilpivirine-containing regimens including cases of Drug Reaction with Eosinophilia and Systemic Symptoms (DRESS). While some skin reactions were accompanied by constitutional symptoms such as fever, other skin reactions were associated with organ dysfunctions, including elevations in hepatic serum biochemistries.
# [6] = Mass balance studies, single-dose oral [14C] drug; type: in vivo, human; conditions: single-dose oral [14C] drug
# [7] = system: human cellular DNA polymerases α, β, and γ; assay: Inhibition of human cellular DNA polymerases; type: biochemical
# [8] = Lactating rats, exposure of pups through milk; type: in vivo, rat; conditions: administered to lactating rats
# From the text: The Centers for Disease Control and Prevention recommends that HIV-1-infected mothers in the United States not breastfeed their infants to avoid risking postnatal transmission of HIV-1 infection. It is not known if the components of the Combination are present in human breast milk, affect human milk production, or have effects on the breastfed infant. […] Animal Data: Cabotegravir: […] Rilpivirine: […]
# [9] = Multiple-dose pharmacokinetics after monthly IM injections, population PK post-hoc estimates FLAIR and ATLAS; type: in vivo, human; conditions: 600-mg monthly IM injection
# group O primary isolates = assay: Antiviral activity against group O primary isolates; type: cell-based, HIV-1; conditions: Human immunodeficiency virus 1, read-out: EC50 values
# [10] = cited from earlier work
# [11] = Pharmacokinetic properties of the components of the Combination (Table 6); parameters: species or system human; conditions: in vivo
# [12] = system: HIV-1 with NNRTI substitutions; assay: Cross-resistance of rilpivirine, NNRTI substitutions; type: cell-based
# HIV-1 = assay: Antiviral activity in combination with other antivirals, cell culture; type: cell-based
# [13] = Fertility studies in rats; type: in vivo, rat; conditions: up to 400 mg/kg/day, dose with maternal toxicity
# [14] = Genotoxicity: bacterial reverse mutation assay, mouse lymphoma assay, in vivo rodent micronucleus assay
# [15] = QT crossover trial of oral rilpivirine in healthy adults; type: in vivo, human
# From the text: The maximum mean time-matched (95% upper confidence bound) differences in QTcF interval from placebo after baseline correction was 2.0 (5.0) msec (i.e., below the threshold of clinical concern).
compound,measurement,setting,value
"Cc1cc(/C=C/C#N)cc(C)c1Nc1ccnc(Nc2ccc(C#N)cc2)n1 [Rilpivirine, 4-[[4-[[4-[(E)-2-cyanoethenyl]-2,6-dimethylphenyl]amino]-2-pyrimidinyl]amino]benzonitrile]",fraction unbound,[1],0.003
same,EC50,HIV-1111B,0.73 nM and 0.00027 µg/mL
same,carcinogenicity,[2]; mouse,positive for hepatocellular neoplasms
same,carcinogenicity,[2]; rat,not carcinogenic
same,EC50,[3],0.07 nM to 1.01 nM and 3e-05 µg/mL to 0.00037 µg/mL
same,exposure higher than matched controls,[4]; mild hepatic impairment (Child-Pugh Score A),47%
same,exposure higher than matched controls,[4]; moderate hepatic impairment (Child-Pugh Score B),5%
same,effect of mild renal impairment on exposure,"[4]; oral rilpivirine, population pharmacokinetic analyses",no clinically relevant effect
same,Grade 4 rash,[5],no Grade 4 rash was reported
same,"treatment-related rashes with at least Grade 2 severity, subjects",[5],3%
same,% of dose excreted as total 14C in feces,[6],85%
same,% of dose excreted as total 14C in urine,[6],6%
same,% of dose excreted as unchanged drug in feces,[6],(26) %
same,% of dose excreted as unchanged drug in urine,[6],(<1) %
same,"inhibition of human cellular DNA polymerases α, β, and γ",[7],does not inhibit
same,presence in milk,[8],present in milk
same,"Ctrough, geometric mean",[9],0.0822 µg/mL
same,AUC,"[9]; human, in vivo, read-out: AUCtau, geometric mean",65.6 µg·h/mL
same,Cmax,"[9]; human, in vivo, read-out: Cmax, geometric mean",0.116 µg/mL
same,EC50,group O primary isolates,2.88 nM to 8.45 nM and 0.00106 µg/mL to 0.0031 µg/mL
same,prevalence of birth defects in live births,[10]; first trimester exposure to rilpivirine-containing regimens,0.9%
same,prevalence of birth defects in live births,[10]; second/third trimester exposure to rilpivirine-containing regimens,1.24%
same,Tmax,"[11]; human, im, intramuscular injection, read-out: Tmax, median (converted)",3 to 4 days
same,half-life,"[11]; human, im, intramuscular injection, read-out: t1/2 (absorption rate limited), mean",91 to 196 days
same,Major route of elimination,[11],Metabolism
same,Metabolic pathways,[11],CYP3A
same,susceptibility with K103N substitution by itself,[12],did not show reduced susceptibility
same,"antiviral activity combined with listed NNRTIs, NRTIs, protease inhibitors, enfuvirtide, maraviroc, or raltegravir",HIV-1,not antagonistic
same,effects on mating or fertility,[13],no effects on mating or fertility
same,genotoxicity,[14],not genotoxic
same,maximum mean time-matched (95% upper confidence bound) difference in QTcF interval from placebo after baseline correction,"[15]; oral 25 mg once daily, steady state",2.0 (5.0) msec
same,maximum mean time-matched (95% upper confidence bound) difference in QTcF interval from placebo after baseline correction,[15]; oral 75 mg once daily,10.7 (15.3) msec
same,maximum mean time-matched (95% upper confidence bound) difference in QTcF interval from placebo after baseline correction,[15]; oral 300 mg once daily,23.3 (28.4) msec
